Source: ChEMBL document CHEMBL1201862, “PubChem BioAssay data set” (2004)
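Five compound concentrations were applied to cells in 96-well plates for 48 hours; endpoints were derived by simple linear interpolation of the resulting dose-response curve. GI50 is the concentration that inhibits growth by half.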 Active and inactive are the calls of the source. Cut-off read from the data, not from the text of the source: active = GI50 up to about 1.1 µM and inactive = higher.

How the values were obtained:
Experiment in all cases: NCI anticancer screen, dose series, 48 h
NCI-H522 = test system: NCI-H522
SW-620 = test system: SW-620
HCT-116 = test system: HCT-116
MDA-N = test system: MDA-N
UACC-257 = test system: UACC-257
PC-3 = test system: PC-3
SF-539 = test system: SF-539
SK-MEL-28 = test system: SK-MEL-28
MDA-MB-435 = test system: MDA-MB-435
A549 = test system: A549
SK-MEL-2 = test system: SK-MEL-2
SR = test system: SR
COLO 205 = test system: COLO 205
SK-MEL-5 = test system: SK-MEL-5
NCI-H226 = test system: NCI-H226
HOP-92 = test system: HOP-92
SF-295 = test system: SF-295
HL-60 = test system: HL-60
SN12C = test system: SN12C
HOP-62 = test system: HOP-62

SMILES | GI50 (NCI-H522) | GI50 (SW-620) | GI50 (HCT-116) | GI50 (MDA-N) | GI50 (UACC-257) | GI50 (PC-3) | GI50 (SF-539) | GI50 (SK-MEL-28) | GI50 (MDA-MB-435) | GI50 (A549) | GI50 (SK-MEL-2) | GI50 (SR) | GI50 (COLO 205) | GI50 (SK-MEL-5) | GI50 (NCI-H226) | GI50 (HOP-92) | GI50 (SF-295) | GI50 (HL-60) | GI50 (SN12C) | GI50 (HOP-62)
c1ccc(/N=C2\SC(=NNc3ccccc3)S\C2=N/c2ccccc2)cc1 | 15.3 µM (inactive) | > 100 µM (inactive) | 50.4 µM (inactive) | 77.6 µM (inactive) | 65.5 µM (inactive) | 19.5 µM (inactive) | 62.5 µM (inactive) | > 100 µM (inactive) | 35.6 µM (inactive) | 25.2 µM (inactive) | 8.18 µM (inactive) | > 100 µM (inactive) | 28.7 µM (inactive) | 44.9 µM (inactive) | 48.1 µM (inactive) | 70.8 µM (inactive) | 25.6 µM (inactive) | > 100 µM (inactive) | 79.3 µM (inactive) | 44.5 µM (inactive)
COC(=O)[C@@H]1C[C@@H]2c3ccccc3N(S(=O)(=O)c3ccccc3)[C@@H]2N1C(=O)OC | > 100 µM (inactive) | > 100 µM (inactive) | > 100 µM (inactive) | > 100 µM (inactive) | > 100 µM (inactive) | > 100 µM (inactive) | > 100 µM (inactive) | > 100 µM (inactive) | > 100 µM (inactive) | > 100 µM (inactive) | > 100 µM (inactive) | > 100 µM (inactive) | > 100 µM (inactive) | > 100 µM (inactive) | > 100 µM (inactive) | > 100 µM (inactive) | > 100 µM (inactive) | > 100 µM (inactive) | > 100 µM (inactive) | > 100 µM (inactive)
CC(=O)c1ccc2c(c1)CC1(C2)Cc2ccccc2C1=O (stereo not given) | 21.5 µM (inactive) | > 100 µM (inactive) | 44.1 µM (inactive) | 45.1 µM (inactive) | 15.5 µM (inactive) | 35.2 µM (inactive) | > 100 µM (inactive) | 64.3 µM (inactive) | 34.2 µM (inactive) | 37.8 µM (inactive) | 71 µM (inactive) | 20.8 µM (inactive) | 34 µM (inactive) | 21.8 µM (inactive) | 85.3 µM (inactive) | 22.4 µM (inactive) | 56 µM (inactive) | 25.1 µM (inactive) | 69 µM (inactive) | > 100 µM (inactive)
COC(=O)C1(C)CCCC2(C)C3CCC4CC3(C=C4CO)CCC12 (stereo not given) | 34.2 µM (inactive) | 69.2 µM (inactive) | 30.6 µM (inactive) | 46.7 µM (inactive) | 41.9 µM (inactive) | 33.1 µM (inactive) | 32.1 µM (inactive) | 66.7 µM (inactive) | 83.2 µM (inactive) | > 100 µM (inactive) | 82.4 µM (inactive) | 27.6 µM (inactive) | 74.8 µM (inactive) | 37.2 µM (inactive) | 53.2 µM (inactive) | 55.1 µM (inactive) | 60.4 µM (inactive) | 20.6 µM (inactive) | 20.3 µM (inactive) | 75 µM (inactive)
CNC(=O)N(C1=NCC(C)S1)c1ccc(C)c(C)c1 (stereo not given) | 4.82 µM (inactive) | 3.48 µM (inactive) | 3.5 µM (inactive) | 0.443 µM (active) | 16.1 µM (inactive) | 3.98 µM (inactive) | 2.62 µM (inactive) | 8.49 µM (inactive) | 0.706 µM (active) | 6.52 µM (inactive) | 1.87 µM (inactive) | 3.67 µM (inactive) | 3.56 µM (inactive) | 4.08 µM (inactive) | 4.6 µM (inactive) | 5.78 µM (inactive) | 3.17 µM (inactive) | 1.17 µM (inactive) | 7.23 µM (inactive) | 5.98 µM (inactive)
Nc1nc(Cl)cc(NCCC2(CO)CCC2)n1 | > 100 µM (inactive) | > 100 µM (inactive) | > 100 µM (inactive) | > 100 µM (inactive) | > 100 µM (inactive) | > 100 µM (inactive) | > 100 µM (inactive) | > 100 µM (inactive) | > 100 µM (inactive) | > 100 µM (inactive) | > 100 µM (inactive) | > 100 µM (inactive) | > 100 µM (inactive) | > 100 µM (inactive) | > 100 µM (inactive) | 93.3 µM (inactive) | > 100 µM (inactive) | > 100 µM (inactive) | > 100 µM (inactive) | > 100 µM (inactive)
O=C1C2CC[C@@H]3C(=O)C(Cl)(Cl)[C@@H]3CCC2C1(Cl)Cl (stereo not given in full) | > 58.7 µM (inactive) | > 100 µM (inactive) | > 86.5 µM (inactive) | > 72.4 µM (inactive) | > 100 µM (inactive) | > 100 µM (inactive) | > 44.4 µM (inactive) | > 100 µM (inactive) | > 100 µM (inactive) | > 100 µM (inactive) | > 100 µM (inactive) | 26.9 µM (inactive) | 71 µM (inactive) | > 100 µM (inactive) | > 100 µM (inactive) | > 100 µM (inactive) | > 100 µM (inactive) | 6.17 µM (inactive) | > 100 µM (inactive) | 3.24 µM (inactive)
O=[N+]([O-])C(/C(Cl)=C(\Cl)Br)=C(/Cl)SCc1ccccc1 | 1.89 µM (inactive) | 2.03 µM (inactive) | 2.48 µM (inactive) | 1.85 µM (inactive) | 6.21 µM (inactive) | 3.84 µM (inactive) | 8.83 µM (inactive) | 2.31 µM (inactive) | 1.87 µM (inactive) | 16.3 µM (inactive) | 3.8 µM (inactive) | 1.44 µM (inactive) | 1.98 µM (inactive) | 2.9 µM (inactive) | 14.4 µM (inactive) | 2.31 µM (inactive) | 16.9 µM (inactive) | 0.336 µM (active) | 3.31 µM (inactive) | 15.1 µM (inactive)
O=C(c1ccccc1)N1CCN(C(=S)N(C(=O)c2ccccc2)c2ccccc2)C1=S | 1.87 µM (inactive) | 3.31 µM (inactive) | 3.4 µM (inactive) | 4.18 µM (inactive) | 8.49 µM (inactive) | 6.59 µM (inactive) | 2.62 µM (inactive) | 3.27 µM (inactive) | 3.84 µM (inactive) | 5.26 µM (inactive) | 7.41 µM (inactive) | 2.07 µM (inactive) | 3.28 µM (inactive) | 13.5 µM (inactive) | 10.7 µM (inactive) | 6.37 µM (inactive) | 12.6 µM (inactive) | 2.25 µM (inactive) | 3.18 µM (inactive) | 10.3 µM (inactive)
CCN(CC)COC(=S)S | 3.61 µM (inactive) | 24.2 µM (inactive) | 40.4 µM (inactive) | > 63.2 µM (inactive) | 27.5 µM (inactive) | 33.3 µM (inactive) | 90.6 µM (inactive) | > 100 µM (inactive) | 38.3 µM (inactive) | > 100 µM (inactive) | 1.82 µM (inactive) | 0.233 µM (active) | 78 µM (inactive) | 21.6 µM (inactive) | > 100 µM (inactive) | > 100 µM (inactive) | > 77.6 µM (inactive) | < 0.01 µM (active) | > 100 µM (inactive) | 48.8 µM (inactive)
